The source of these data is ChEMBL document CHEMBL4431349, “Synthesis and in vitro evaluation of water-soluble 1,4-diphenethylpiperazine analogs as novel inhibitors of the vesicular monoamine transporter-2” (Bioorg Med Chem Lett, 2016).

In data set [1] the target is Voltage-gated inwardly rectifying potassium channel KCNH2 (Homo sapiens, UniProt Q12809). The experiment in a line: Inhibition of [3H]dofetilide binding to human ERG expressed in HEK293 cell membranes after 60 mins by liquid scintillation spectrometric analysis.
Voltage-gated inwardly rectifying potassium channel KCNH2, sequence (Q12809 whole entry): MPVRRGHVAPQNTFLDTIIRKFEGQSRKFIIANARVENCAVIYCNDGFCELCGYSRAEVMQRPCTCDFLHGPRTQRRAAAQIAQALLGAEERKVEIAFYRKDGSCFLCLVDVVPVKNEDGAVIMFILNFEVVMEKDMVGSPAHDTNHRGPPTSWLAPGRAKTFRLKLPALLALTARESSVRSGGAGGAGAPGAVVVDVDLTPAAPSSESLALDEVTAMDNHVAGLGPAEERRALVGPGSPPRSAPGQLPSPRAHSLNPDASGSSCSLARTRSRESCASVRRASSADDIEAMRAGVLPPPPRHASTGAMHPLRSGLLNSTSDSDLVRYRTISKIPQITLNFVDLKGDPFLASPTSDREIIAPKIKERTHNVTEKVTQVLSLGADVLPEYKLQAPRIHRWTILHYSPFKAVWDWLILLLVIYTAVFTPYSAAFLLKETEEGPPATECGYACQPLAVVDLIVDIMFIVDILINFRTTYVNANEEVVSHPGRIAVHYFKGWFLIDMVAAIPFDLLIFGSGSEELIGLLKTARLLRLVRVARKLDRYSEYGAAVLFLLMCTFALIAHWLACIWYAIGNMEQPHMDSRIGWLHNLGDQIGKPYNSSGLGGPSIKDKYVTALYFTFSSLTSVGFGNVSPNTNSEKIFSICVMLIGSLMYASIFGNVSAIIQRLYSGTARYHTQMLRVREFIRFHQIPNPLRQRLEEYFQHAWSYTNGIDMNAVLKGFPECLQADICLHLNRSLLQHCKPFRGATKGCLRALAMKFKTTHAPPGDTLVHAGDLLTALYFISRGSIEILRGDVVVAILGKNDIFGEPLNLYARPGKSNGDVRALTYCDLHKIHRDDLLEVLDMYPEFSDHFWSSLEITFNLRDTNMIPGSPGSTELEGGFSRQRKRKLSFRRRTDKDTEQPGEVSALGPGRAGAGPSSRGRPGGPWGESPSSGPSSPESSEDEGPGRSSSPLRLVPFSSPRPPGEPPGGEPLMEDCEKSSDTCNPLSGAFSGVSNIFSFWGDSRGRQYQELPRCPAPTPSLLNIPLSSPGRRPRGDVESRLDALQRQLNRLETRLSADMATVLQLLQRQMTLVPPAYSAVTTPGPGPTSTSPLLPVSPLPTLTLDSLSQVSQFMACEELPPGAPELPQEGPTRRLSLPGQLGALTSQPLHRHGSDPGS
A short description of data set [2]: Thermodynamic solubility of the compound in water at pH 7.4 after 24 hrs by HPLC based shake flask method. Particulars: read-out: Therm_solubility. In kind it is physicochemical.

For orientation: Ki means the equilibrium dissociation constant of an inhibitor or competing ligand from its target. Read a low Ki as tighter binding. In turn, `Clc1ccccc1CCN1CCN(CCc2ccccc2Cl)CC1` registered an inhibitory constant (Ki) in data set [1] of 1.08 µM. In the case of `COc1ccccc1CCN1CCN(CCc2ccccc2OC)CC1`, the Ki in data set [1] came out at 1.02 µM. The Ki values of the last two compounds are within 1.5-fold of each other. In data set [1], `COc1ccccc1CCN1CCN(CCc2ccccc2)CC1.Cl.Cl` registered a Ki of 2.94 µM. Moreover, the solubility thermodynamic at 24 h in data set [2] was found to be 33.3 mg/mL.
